From ChEMBL document CHEMBL5223111, “Total synthesis and antibacterial evaluation of Empetroxepins A and B and related analogs” (2022)
Converted amounts (≈) assume the structure as drawn.

Experiments:
Format in all cases: functional
Staphylococcus aureus = assay: Antibacterial activity against Staphylococcus aureus assessed as reduction in pathogen growth
Bacillus subtilis = assay: Antibacterial activity against Bacillus subtilis assessed as reduction in pathogen growth
Escherichia coli = assay: Antibacterial activity against Escherichia coli assessed as reduction in pathogen growth

| SMILES | MIC (Staphylococcus aureus) [µg/mL] | MIC (Bacillus subtilis) [µg/mL] | MIC (Escherichia coli) [µg/mL] |
| --- | --- | --- | --- |
| COc1cc2c(c(O)c1OC)Oc1ccccc1CC2 | > 256 | 256 (≈ 940 µM) | > 256 |
| COc1c(O)cc2c(c1OC)Oc1ccccc1CC2 | 256 (≈ 940 µM) | 256 (≈ 940 µM) | > 256 |
| COc1cc2c(c(OC)c1OC)Oc1ccc(NCc3ccccc3)cc1CC2 | > 256 | > 256 | > 256 |
| COc1cc2c(c(OC)c1OC)Oc1ccc(Nc3ccccc3)cc1CC2 | > 256 | > 256 | > 256 |
| COC(=O)c1ccccc1-c1ccc2c(c1)CCc1cc(OC)c(OC)c(OC)c1O2 | > 256 | > 256 | > 256 |
| COc1cc2c(c(OC)c1OC)Oc1ccc(Cl)cc1CC2 | > 256 | > 256 | > 256 |
| COc1ccc(-c2ccc3c(c2)CCc2cc(OC)c(OC)c(OC)c2O3)cc1 | > 256 | > 256 | > 256 |
| COc1cc2c(c(OC)c1OC)Oc1c(Cl)cccc1CC2 | > 256 | > 256 | > 256 |
| COc1cc2c(c(OC)c1OC)Oc1cccc(Cl)c1CC2 | > 256 | > 256 | > 256 |
| COc1cc2c(c(OC)c1OC)Oc1ccc(N3CCOCC3)cc1CC2 | > 256 | > 256 | > 256 |
| COc1cc2c(c(OC)c1OC)Oc1ccc(-c3ccccc3)cc1CC2 | > 256 | > 256 | > 256 |
| COc1cc2c(c(OC)c1OC)Oc1ccc(N3CCCCC3)cc1CC2 | > 256 | > 256 | > 256 |
| COc1ccc2c(c1)CCc1cc(O)c(OC)c(O)c1O2 | 128 (≈ 444 µM) | 128 (≈ 444 µM) | > 256 |
| COc1c(O)cc2c(c1O)Oc1ccc(O)cc1CC2 | 256 (≈ 933 µM) | 256 (≈ 933 µM) | > 256 |
| COc1cc2c(c(OC)c1OC)Oc1ccc(C)cc1CC2 | > 256 | > 256 | > 256 |
| COc1c(O)cc2c(c1O)Oc1ccc(N3CCOCC3)cc1CC2 | 256 (≈ 746 µM) | 256 (≈ 746 µM) | > 256 |
| CCN(CC)c1ccc2c(c1)CCc1cc(OC)c(OC)c(OC)c1O2 | > 256 | > 256 | > 256 |
| COc1ccc2c(c1)CCc1cc(OC)c(OC)c(OC)c1O2 | > 256 | > 256 | > 256 |
| COc1c(O)cc2c(c1O)Oc1ccccc1CC2 | 256 (≈ 991 µM) | 256 (≈ 991 µM) | > 256 |
| COc1cc2c(c(OC)c1OC)Oc1ccccc1CC2 | > 256 | > 256 | > 256 |
| COc1cc2c(c(OC)c1OC)Oc1ccc(Br)cc1CC2 | > 256 | > 256 | > 256 |
| COc1cc2c(c(OC)c1OC)Oc1ccc(N)cc1CC2 | > 256 | > 256 | > 256 |
| COc1c(O)cc2c(c1O)Oc1ccc(N3CCCCC3)cc1CC2 | 128 (≈ 375 µM) | 64 (≈ 187 µM) | > 256 |
| O=C(N[C@H](CO)[C@H](O)c1ccc([N+](=O)[O-])cc1)C(Cl)Cl [CHLORAMPHENICOL] | 8 (≈ 24.8 µM) | 4 (≈ 12.4 µM) | 8 (≈ 24.8 µM) |

Next, values leading:

| MIC (Staphylococcus aureus) [µg/mL] | MIC (Bacillus subtilis) [µg/mL] | MIC (Escherichia coli) [µg/mL] | SMILES |
| --- | --- | --- | --- |
| 64 (≈ 230 µM) | 128 (≈ 459 µM) | > 256 | Oc1cc2c(c(O)c1O)Oc1ccc(Cl)cc1CC2 |
| 16 (≈ 47.9 µM) | 16 (≈ 47.9 µM) | > 256 | COc1c(O)cc2c(c1O)Oc1ccc(-c3ccccc3)cc1CC2 |
| 16 (≈ 45.6 µM) | 16 (≈ 45.6 µM) | > 256 | COc1c(O)cc2c(c1OC)Oc1ccc(Br)cc1CC2 |
| 64 (≈ 262 µM) | 128 (≈ 524 µM) | > 256 | Oc1cc2c(c(O)c1O)Oc1ccccc1CC2 |
| 64 (≈ 176 µM) | 64 (≈ 176 µM) | > 256 | COc1c(O)cc2c(c1O)Oc1ccc(NCc3ccccc3)cc1CC2 |
| 8 (≈ 28.7 µM) | 16 (≈ 57.4 µM) | 256 (≈ 919 µM) | Oc1cc2c(c(O)c1O)Oc1cccc(Cl)c1CC2 |
| 32 (≈ 91.6 µM) | 32 (≈ 91.6 µM) | > 256 | COc1c(O)cc2c(c1O)Oc1ccc(Nc3ccccc3)cc1CC2 |
| 16 (≈ 61.9 µM) | 32 (≈ 124 µM) | 256 (≈ 991 µM) | Cc1ccc2c(c1)CCc1cc(O)c(O)c(O)c1O2 |
| 32 (≈ 115 µM) | 32 (≈ 115 µM) | > 256 | Oc1cc2c(c(O)c1O)Oc1c(Cl)cccc1CC2 |
| 32 (≈ 91.1 µM) | 32 (≈ 91.1 µM) | > 256 | COc1cc2c(c(O)c1OC)Oc1ccc(Br)cc1CC2 |
| 64 (≈ 194 µM) | 64 (≈ 194 µM) | > 256 | CCN(CC)c1ccc2c(c1)CCc1cc(O)c(OC)c(O)c1O2 |
| 16 (≈ 49.5 µM) | 8 (≈ 24.8 µM) | > 256 | Oc1cc2c(c(O)c1O)Oc1ccc(Br)cc1CC2 |
| 16 (≈ 47.5 µM) | 16 (≈ 47.5 µM) | > 256 | COc1c(O)cc2c(c1O)Oc1ccc(Br)cc1CC2 |
